Measured values reported in patent US20220257617A1, “COMPOSITIONS AND METHODS FOR KELOIDLESS HEALING” (priority 2017, published 2022).

Legend:
NIH 3T3 cells = assay: Col1a1/Col3a1 mRNA expression in dermal fibroblasts (qRT-PCR); type: cell-based, mouse; settings: for collagen transcription (Col1a1/Col3a1 mRNA): NIH 3T3 stimulated with 1 μM S1P for 24 hours in presence of 10 μM inhibitor
Procedure: Mouse dermal fibroblast NIH 3T3 cells were cultured in DMEM. To analyze the production of collagens, ascorbic acid 2-phosphate (Sigma-Aldrich) was added in culture medium to 0.2 mM of final concentration.
We performed sCA preparation as previously published (23). We mixed 4 μl of 1M CaCl2) with 2 μg of plasmid DNA in 1 mL of an inorganic solution (NaHCO3; 44 mM, NaH2PO4; 0.9 mM, CaCl2); 1.8 mM, pH 7.5), then incubated at 37° C. for 30 min. The solution was centrifuged at 12,000 rpm for 3 min, and the pellet was dissolved with DMEM. We sonicated the solution in a water bath for 10 min to generate sCA. Cells were cultured in 6 well plate for 24 hours, then incubated with sCA-DMEM solution for 6 hours. We changed medium into DMEM with 10% FBS and incubated for additional 48 hours, then collected for total RNA isolation.
Total RNA was extracted using TRIzol® Regent (Invitrogen). cDNA was then synthesized using High Capacity cDNA Reverse Transcription Kits (Applied Biosystems, Foster City, Calif.). qRT-PCR was performed using an CFX96 Real-Time System (Bio-Rad, Hercules, Calif.) with PowerUp SYBR Green master mix (Bio-Rad). GAPDH served as the internal control. Relative expression was calculated using the 2-ΔΔCt method with correction for different amplification efficiencies.

wound tissue = assay: Immunohistochemistry of wounds (F4/80, Ki67, CD34); type: in vivo, mouse; settings: 1 uM S1P topical vs vehicle, day 5 after punch
From the text: Mouse excisional wound splinting model were generated as previously published 1. Mice were anesthetized using isoflurane and removed dorsal hair. Two of 5 mm-diameter full-thickness skin punches were created symmetrically besides the midline. 12 mm diameter circle-shaped silicon lubber splints in which 6 mm diameter circles were punched in center were used for wound splinting. […] were fixed with instant-bonding adhesive and sutures around wounds. After application with any ointment, dressings were performed with Tegaderm (3M, Maplewood, Minn.). We performed H&E, Masson's trichrome staining on paraffin-embedded sections. We used primary antibodies against F4/80, Ki67 and CD34. Immunostaining was developed with VECTASTAIN Universal Elite ABC Kit (Vector, Burlingame, Calif.). We purchased all antibodies from Abcam (Cambridge, UK). We analyzed the results using ImageJ.

scar = assay: Scar thickness analysis (Masson's trichrome); type: in vivo, mouse; settings: 1 μM S1P topical vs vehicle, at the point of epithelization
From the text: We performed H&E, Masson's trichrome staining on paraffin-embedded sections. We used primary antibodies against F4/80, Ki67 and CD34. Immunostaining was developed with VECTASTAIN Universal Elite ABC Kit (Vector, Burlingame, Calif.). We purchased all antibodies from Abcam (Cambridge, UK). We analyzed the results using ImageJ. We calculated scar thickness with Masson's trichrome stain images using ImageJ.

mouse excisional wound = assay: Mouse excisional wound splinting model, wound area analysis; type: in vivo
From the text: Mouse excisional wound splinting model were generated as previously published 1. Mice were anesthetized using isoflurane and removed dorsal hair. Two of 5 mm-diameter full-thickness skin punches were created symmetrically besides the midline. 12 mm diameter circle-shaped silicon lubber splints in which 6 mm diameter circles were punched in center were used for wound splinting. […] were fixed with instant-bonding adhesive and sutures around wounds. After application with any ointment, dressings were performed with Tegaderm (3M, Maplewood, Minn.). S1P was purchased from Sigma-Aldrich (Carlsbad, Calif.). 1 mM S1P in 4% bovine serum albumin was prepared with sonication, diluted 1000-fold for 1 μM ointment or 10-fold for 100 μM ointment with Aquaphor® and mixed well. We generated sCA with 100 ug plasmid DNA and dissolved the sCA pellet with 50 μl PBS. Then we mixed all of the solution into 200 μl of Aquaphor®. We used 250 μl ointment for 4 wounds of 2 mice. Digital photo images were analyzed using GIMP 2.8 software. The pixels of wound area were normalized by those of inside area of silicon splint. Then, the ratios devised by wound area at day 0 were calculated.

scar neovasculature = assay: Neovasculature analysis in scars; type: in vivo, mouse; settings: S1P treatment vs vehicle, Balb/c mice, at the point of epithelization
From the text: We performed neovasculature analysis using standard approaches.

[1] = system: inflammatory cells in wound; assay: Flow cytometry of cells separated from mouse wound tissues; type: in vivo; settings: 1 uM S1P topical vs vehicle
From the text: Mouse excisional wound splinting model were generated as previously published 1. Mice were anesthetized using isoflurane and removed dorsal hair. Two of 5 mm-diameter full-thickness skin punches were created symmetrically besides the midline. 12 mm diameter circle-shaped silicon lubber splints in which 6 mm diameter circles were punched in center were used for wound splinting. […] were fixed with instant-bonding adhesive and sutures around wounds. After application with any ointment, dressings were performed with Tegaderm (3M, Maplewood, Minn.). We performed cell separation from mouse wound tissues as previously published^4. We digested the tissues cut into small pieces in DMEM with 10% FBS, 1.2 mg/ml hyaluronidase (Sigma Aldrich), 2 mg/ml collagenase (Sigma Aldrich), and 0.2 mg/ml DNase I (Sigma Aldrich) at 37° C. for 90 min. Cell pellets were resuspended in PBS with 2% FBS, incubated with anti-CD16/32 antibody (Biolegend, San Diego, Calif.) for 5 min to block Fcγ receptors. For inflammatory cell recruitment analysis, we stained with phycoerythrin (PE)-conjugated anti-Gr-1, allophycocyanin (APC)-conjugated anti-CD3a, PE/CY7 conjugated anti-CD4, or fluorescein isothiocyanate (FITC)-conjugated anti-CD8a antibody (CiteAb, Bath, UK) at 4° C. for 20 min. […] Cells were analyzed with FACSDiva (BD, San Jose, Calif.).

[2] = NIH 3T3 stimulated with exogenous S1P for 24 hours

Row | SMILES | collagen transcription (Col1a1/Col3a1 mRNA) (NIH 3T3 cells) | transcription of Col1a1 (NIH 3T3 cells; [2]) | transcription of Col3a1 (NIH 3T3 cells; [2]) | angiogenesis (CD34 immunohistochemistry) (wound tissue) | cell proliferation (Ki67) (wound tissue) | scar thickness (scar) | wound closure (mouse excisional wound; 1 μM S1P topical treatment vs control vehicle) | wound closure (mouse excisional wound; 100 μM S1P treatment, Balb/c mice) | wound closure (mouse excisional wound; high concentration S1P (100 PM) vs vehicle, C57BL6/J mice) | neovasculatures in scars (scar neovasculature) | recruitment of granulocytes (Gr-1 positive cells) ([1]; day 2 after punch) | percentage of T cells in wounds ([1]; day 5 after punch)
1 | Cc1nn(C)c2nc(NNC(=O)Nc3cc(Cl)nc(Cl)c3)cc(C(C)C)c12 [JTE013, reference compound] | increased | – | – | – | – | – | – | – | – | – | – | –
2 | CCCCCCCCCCCCC/C=C/[C@@H](O)[C@@H](N)COP(=O)(O)O [S1P, sphingosine-1-phosphate] | – | inhibited | inhibited | promoting angiogenesis | no effect | statistically significant reduction in scar thickness were not obtained | significantly promoted | significantly obstructed | no difference | confirmed the development of neovasculatures | does not influence | did not increase
3 | CCCCCCCCc1cccc(NC(=O)[C@H](N)COP(=O)(O)O)c1 [VPC23019, reference compound] | increased | – | – | – | – | – | – | – | – | – | – | –
